Test results reported in US10259823B2, “GLP-1 receptor modulators” (Celgene International II SÀRL, priority 2013, dated 2019).

What follows are molecules tested against T1, GLP-1R (Homo sapiens, UniProt P43220) (assay: EC20 GLP-1(9-36) PAM cAMP assay: dose response of compound in the presence of fixed concentration of GLP-1(9-36)). Conditions: GLP-1R CRE-bla CHO-K1 cells, compound dose response with fixed GLP-1(9-36), 30 min at 37° C.
T1 construct: host or cells: CRE-bla CHO-K1
Format: cell-based
Description: EC20 GLP-1(9-36) PAM cAMP assay: dose response of compound in the presence of fixed concentration of GLP-1 (9-36).
GLP-1R CRE-bla CHO-K1 cells cultured in growth medium (DMEM-High glucose, 10% dialyzed FBS, 0.1 mM NEAA, 25 mM Hepes, 100 U/mL penicillin/100 μg/mL streptomycin, 5 μg/mL Blasticidin, 600 μg/mL Hygromycin) were trypsinized and plated in suspension into 384 well white flat bottom plates at 5000 cells/well in 12 μL assay buffer (Hanks Balanced Salt solution, 10 mM hepes, 0.1% BSA, pH 7.4). A 5× compound dose response curve (12-point) was generated in assay buffer containing 1.5 mM IBMX, 4% DMSO. GLP-1(9-36) was diluted to 4.2 μM in assay buffer containing 1.5 mM IMBX and 4% DMSO. The 5× compound dose response was added (3 μL), followed by 0.5 μL of GLP-1(9-36) and cells were incubated for 30 min at 37° C. Direct detection of cAMP was carried out using DiscoveRx HitHunter cAMP kit according to manufacturer's instructions and luminescence was read using a SpectraMax M5 plate reader. Luminescence was converted to total cAMP using a cAMP standard curve and data was analyzed by non-linear regression to determine the EC50 and Emax.
GLP-1(7-36): […]-NH2 (SEQ ID NO: GLP-1(9-36): […]-NH2(SEQ ID NO: 3) GLP-1(7-36) was purchased from GenScript. GLP-1(9-36) was purchased from Biopeptide Co., Inc.

T1 sequence (P43220 24-463): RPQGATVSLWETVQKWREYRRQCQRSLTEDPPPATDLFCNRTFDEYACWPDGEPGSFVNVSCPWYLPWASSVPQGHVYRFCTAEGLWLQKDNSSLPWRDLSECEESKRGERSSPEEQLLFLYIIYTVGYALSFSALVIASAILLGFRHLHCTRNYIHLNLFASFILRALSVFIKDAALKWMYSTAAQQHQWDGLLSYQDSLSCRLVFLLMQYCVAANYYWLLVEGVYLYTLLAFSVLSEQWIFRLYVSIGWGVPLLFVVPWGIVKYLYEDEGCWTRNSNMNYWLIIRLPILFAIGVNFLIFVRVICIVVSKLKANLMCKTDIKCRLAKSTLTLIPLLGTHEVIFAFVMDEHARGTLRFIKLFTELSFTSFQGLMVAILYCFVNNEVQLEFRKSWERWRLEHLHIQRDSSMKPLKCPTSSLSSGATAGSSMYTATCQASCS
T1 sequence (P01275 100-127 partner limits assumed): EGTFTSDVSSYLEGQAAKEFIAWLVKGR

EC50 [µM] | Structure (SMILES)
< 0.8 | CCCCCCCOc1ccc(-c2cnc(-c3ccc(C[C@H](NC(=O)c4ccc(C(C)(C)C)s4)C(=O)N[C@@H](CC(=O)NC4CC4)C(=O)O)cc3)nc2)cc1 [Compound 514]
2.5 to 5 | C/C=C/CCCOc1ccc(-c2cnc(-c3ccc(C[C@H](NC(=O)c4ccc(C(C)(C)C)cc4)C(=O)NCCC(=O)O)cc3)nc2)cc1 [Compound 714]
5 to 10 | CCCCCCCOc1ccc(-c2cnc(-c3ccc(C[C@H](NC(=O)c4ccc(C(C)(C)C)cc4)C(=O)NC[C@H]4CCNC4)cc3)nc2)cc1 [Compound 413]
0.8 to 2.5 | CCCCCCCOc1ccc(-c2cnc(-c3ccc(C[C@H](NC(=O)[C@H]4CC[C@H](C(C)(C)C)CC4)C(=O)N4CC[C@H](C(=O)O)C4)cc3)nc2)cc1 [Compound 858]
< 0.8 | CCCCCCCOc1ccc(-c2cnc(-c3ccc(C[C@H](NC(=O)c4ccc(C(C)(C)C)cc4)C(=O)NC(CCS(C)(=O)=O)C(=O)O)cc3)nc2)cc1 (some centres unmarked) [Compound 570]
2.5 to 5 | CCCC/C=C/COc1ccc(-c2cnc(-c3ccc(C[C@H](NC(=O)c4ccc(C(C)(C)C)cc4)C(=O)NCCC(=O)O)cc3)nc2)cc1 [Compound 715]
5 to 10 | CC(C)(C)c1ccc(C(=O)N[C@@H](Cc2ccc(-c3ncc(C4CCC(C(C)(C)C)CC4)cn3)cc2)C(=O)NCCC(=O)O)cc1 (some centres unmarked) [Compound 674]
0.8 to 2.5 | CCCCCCCOc1ccc(-c2cnc(-c3ccc(C[C@H](NC(=O)c4ccc(OC(F)(F)F)cc4)C(=O)N[C@H](C)C(=O)O)cc3)nc2)cc1 [Compound 821]
2.5 to 5 | CCCCCCCOCCc1ccc(-c2nc(-c3ccc(C(NC(=O)c4ccc(C(C)(C)C)cc4)C(=O)O)cc3)no2)cc1 (centres unmarked) [Compound 71]
0.8 to 2.5 | C[C@@H](NC(=O)[C@H](Cc1ccc(-c2ncc(-c3ccc(OCc4ccccc4)cc3F)cn2)cc1)NC(=O)c1ccc(C(C)(C)C)s1)C(=O)O [Compound 1024]
< 0.8 | CC(C)(C)CCCOc1ccc(-c2cnc(-c3ccc(C[C@H](NC(=O)c4ccc(C(C)(C)C)s4)C(=O)NC(C(=O)O)C(O)c4ccccc4)cc3)nc2)cc1 (some centres unmarked) [Compound 944]
0.8 to 2.5 | CCCCCCCOc1ccc(-c2cnc(-c3ccc(C[C@H](NC(=O)c4ccc(C(C)(C)C)cc4)C(=O)N[C@@H](Cc4cn(C)cn4)C(=O)O)cc3)nc2)cc1 [Compound 576]
2.5 to 5 | CCCCCCCOc1ccc(-c2cnc(-c3ccc(C[C@H](NC(=O)c4ccc(OC(C)C)cc4)C(=O)N[C@H](C)C(=O)O)cc3)nc2)cc1 [Compound 820]
2.5 to 5 | CCCCCCCOc1ccc(-c2cnc(-c3ccc(C[C@H](NC(=O)c4oc(C(C)(C)C)cc4C)C(=O)N4CC[C@H](C(=O)O)C4)cc3)nc2)cc1 [Compound 866]
0.8 to 2.5 | CCCCCCCOc1ccc(-c2cnc(-c3ccc(C[C@H](NC(=O)c4ccc(C(C)(C)C)s4)C(=O)N[C@H]4CCC[C@H]4C(=O)O)cc3)nc2)cc1 [Compound 382]
< 0.8 | CCCCCCCOc1ccc(-c2cnc(-c3ccc(C[C@H](NC(=O)c4ccc(C(C)(C)C)s4)C(=O)NC(C(=O)O)c4ccc(C)cc4)cc3)nc2)cc1 (some centres unmarked) [Compound 617]
5 to 10 | CCCCCCCOC1CCN(c2cnc(-c3ccc(C[C@H](NC(=O)c4ccc(C(C)(C)C)cc4)C(=O)NCCC(=O)O)cc3)nc2)CC1 [Compound 693]
